Experiments:
[1] = test system: FAP; details: stated without data; cited from earlier work
[2] = test system: A2-B6A/J mice; assay: Notexin injury of A2-B6A/J TA muscle with or without recombinant AnxA2; format: in vivo, mouse; details: 10 μg AnxA2 at injury site, 28 d after injury, vs notexin alone
Procedure: To test if this was also true in vivo, the AnxA2-naïve A2-B6A/J mice were used for receiving notexin to injure their muscle with or without the addition of 10 μg purified AnxA2 at the site of injury. […] This provides direct evidence supporting that extracellular AnxA2 is not only necessary, but also sufficient for driving FAP-mediated in vivo adipogenic conversion of the regenerating dysferlinopathic muscles.
Microscopy and Image Analysis. Microscopy was performed using an Olympus BX61 VS120-S5 Virtual Slide Scanning System with UPlanSApo 40×/0.95 objective, Olympus XM10 monochrome camera or Allied vision Pike F-505C color camera, and Olympus VS-ASW FL 2.7 imaging software. […] Perilipin-1 quantification was performed by thresholding the image to exclude non-specific staining and then calculating the area of each lipid deposit encircled by perlipin-1 (excluding those in the epi- or perimysium) using MetaMorph software (Molecular Devices). The total area encircled by perilipin-1 was calculated for all lipid deposits across the muscle and expressed relative to the total cross-sectional area. PDGFRα and AnxA2 positive area was calculated using CellSens software (Olympus) by thresholding to remove non-specific staining and calculating the total positive area (again, excluding any epi- or perimysial staining) relative to the entire muscle cross-section. […]

[3] = test system: B6A/J FAPs; assay: Spontaneous adipogenesis of purified B6A/J FAPs treated with recombinant AnxA2 (Oil Red O); format: cell-based, mouse; details: 100 nM AnxA2 from day 3; 24Mo B6A/J FAPs; vs AnxA2 untreated FAPs
Source text: The contribution of AnxA2 to the adipogenic fate of the FAPs was next examined in dysferlin-deficient muscle. For this FAPs were isolated from 12Mo WT, B6A/J and A2-B6A/J muscle and their spontaneous adipogenesis in vitro was quantified. […] The spontaneous adipogenesis of B6A/J FAPs indicates these cells are committed to adipogenesis prior to extraction, which can be caused by the pro-adipogenic niche in dysferlinopathic muscle. The lack of spontaneous adipogenesis in A2-B6A/J FAPs can be caused by the lack of a pro-adipogenic niche or restricted adipogenic potential of the FAPs in the absence of AnxA2 (FIG. 8). As adipogenic replacement of muscle is enhanced with age, the niche (PDGFRα^−) and FAP (PDGFRα^+) cells from 24Mo B6A/J and A2-B6A/J muscles were isolated to allow for the niche cells to reach their maximal potential. These FAP and niche cells were then mixed in a 1:1 ratio (20,000 cells total; 10,000 FAPs) from the same or different genetic background and their spontaneous adipogenesis was quantified as the extent of oil red staining/20,000 FAPs. […] To directly test if it is the AnxA2 or another factor secreted by the niche cells that influences FAP adipogenesis, a purified population of B6A/J FAPs ([…]) were treated with 100 nM AnxA2 and their spontaneous adipogenesis was quantified as the extent of oil red staining/20,000 FAPs. […]

Compound	FAP adipogenesis [1]	accumulation of PDGFRα FAPs in TA after notexin injury [2]	perilipin-1 labeled adipogenic deposits in TA after notexin injury [2]	increase in spontaneous adipogenic differentiation of dysferlinopathic FAPs (oil red staining/20,000 FAPs) [3] [fold]
CC(CN1c2ccccc2Sc2ccccc21)N(C)C (stereo not shown) [promethazine]	inhibits FAP adipogenesis	–	–	–
AnxA2: recombinant AnxA2 (RayBiotech, #230-30023), membrane repair protein Annexin A2	–	increased accumulation	increased accumulation	> 2
